PubChem BioAssay AID248 (DTP/NCI, 2004)
“And” between values parts separate entries of the source, which are not always exact repeats. Identical values can stand only once. Toxic doses and inconclusive results are not listed.

Tested on: L1210 leukemia ip in BDF1 mice, survival T/C
Test: NCI In Vivo Anticancer Drug Screen. Data for tumor model L1210 Leukemia (intraperitoneal) in B6D2F1 (BDF1) mice
Conditions: endpoint: mean survival time, higher = longer survival
How it was run: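 Each compound was tested against a transplantable tumor grown in mice. The endpoint was survival, with treated animals benchmarked against vehicle controls as a simple ratio.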

## O=NN(CCF)C(=O)NC1CCCCC1
dose: 0.33 mg/kg/injection, schedule: Q#B X003 (ip), vehicle: other
  T/C: 109 % of control
dose: 0.66 mg/kg/injection, schedule: Q#B X003 (ip), vehicle: other
  T/C: 119 % of control
dose: 0.93 mg/kg/injection, schedule: Q01DX001 (ip), vehicle: carboxymethylcellulose (CMC)
  T/C: 102 % of control
dose: 1.33 mg/kg/injection, schedule: Q#B X003 (ip), vehicle: other
  T/C: 121 % of control
dose: 1.56 mg/kg/injection, schedule: Q03HX032 (ip), vehicle: carboxymethylcellulose (CMC)
  T/C: 111 % of control
dose: 1.87 mg/kg/injection, schedule: Q01DX001 (ip), vehicle: carboxymethylcellulose (CMC)
  T/C: 102 % of control
dose: 2.97 mg/kg/injection, schedule: Q01DX015 (ip), vehicle: other
  T/C: 96 % of control and 117 % of control
dose: 3.12 mg/kg/injection, schedule: Q01DX001 (sc), vehicle: other
  T/C: 122 % of control
dose: 3.12 mg/kg/injection, schedule: Q03HX008 (ip), vehicle: carboxymethylcellulose (CMC)
  T/C: 188 % of control
dose: 3.12 mg/kg/injection, schedule: Q03HX032 (ip), vehicle: carboxymethylcellulose (CMC)
  T/C: 416 % of control
dose: 3.12 mg/kg/injection, schedule: Q03HX032 (oral), vehicle: carboxymethylcellulose (CMC)
  T/C: 177 % of control
dose: 3.75 mg/kg/injection, schedule: Q01DX001 (ip), vehicle: carboxymethylcellulose (CMC)
  T/C: 112 % of control
dose: 5.0 mg/kg/injection, schedule: Q01DX001 (ip), vehicle: carboxymethylcellulose (CMC)
  T/C: 108 % of control
dose: 6.0 mg/kg/injection, schedule: Q02DX008 (ip), vehicle: other
  T/C: 157 % of control and 160 % of control
dose: 6.25 mg/kg/injection, schedule: Q01DX001 (sc), vehicle: other
  T/C: 117 % of control
dose: 6.25 mg/kg/injection, schedule: Q01DX013 (ip), vehicle: carboxymethylcellulose (CMC)
  T/C: 122 % of control
dose: 6.25 mg/kg/injection, schedule: Q03HX008 (oral), vehicle: carboxymethylcellulose (CMC)
  T/C: 605 % of control
dose: 6.25 mg/kg/injection, schedule: Q03HX032 (oral), vehicle: carboxymethylcellulose (CMC)
  T/C: 288 % of control
dose: 6.25 mg/kg/injection, schedule: Q## X006 (ip), vehicle: carboxymethylcellulose (CMC)
  T/C: 111 % of control
dose: 6.25 mg/kg/injection, schedule: Q## X006 (oral), vehicle: carboxymethylcellulose (CMC)
  T/C: 305 % of control
dose: 6.75 mg/kg/injection, schedule: Q01DX015 (ip), vehicle: other
  T/C: 448 % of control and 489 % of control
dose: 9.0 mg/kg/injection, schedule: Q02DX008 (ip), vehicle: other
  T/C: 345 % of control and 397 % of control
dose: 10.0 mg/kg/injection, schedule: Q01DX015 (ip), vehicle: other
  T/C: 424 % of control and 524 % of control
dose: 12.0 mg/kg/injection, schedule: Q## X004 (ip), vehicle: other
  T/C: 370 % of control and 608 % of control
dose: 12.5 mg/kg/injection, schedule: Q01DX001 (ip), vehicle: carboxymethylcellulose (CMC)
  T/C: 183 % of control
dose: 12.5 mg/kg/injection, schedule: Q01DX001 (sc), vehicle: other
  T/C: 157 % of control
dose: 12.5 mg/kg/injection, schedule: Q01DX013 (ip), vehicle: carboxymethylcellulose (CMC)
  T/C: 183 % of control
dose: 12.5 mg/kg/injection, schedule: Q03HX032 (oral), vehicle: carboxymethylcellulose (CMC)
  T/C: 255 % of control
dose: 12.5 mg/kg/injection, schedule: Q## X006 (ip), vehicle: carboxymethylcellulose (CMC)
  T/C: 155 % of control
dose: 13.5 mg/kg/injection, schedule: Q01DX001 (ip), vehicle: other
  T/C: 187 % of control
dose: 13.5 mg/kg/injection, schedule: Q01DX001 (oral), vehicle: other
  T/C: 178 % of control and 183 % of control
dose: 13.5 mg/kg/injection, schedule: Q02DX008 (ip), vehicle: other
  T/C: 456 % of control and 470 % of control
dose: 13.5 mg/kg/injection, schedule: Q## X001 (ip), vehicle: other
  T/C: 247 % of control
dose: 13.5 mg/kg/injection, schedule: Q## X001 (oral), vehicle: other
  T/C: 253 % of control
dose: 14.0 mg/kg/injection, schedule: Q## X032 (ip), vehicle: other
  T/C: 341 % of control
dose: 15.0 mg/kg/injection, schedule: Q01DX001 (ip), vehicle: carboxymethylcellulose (CMC)
  T/C: 174 % of control
dose: 15.0 mg/kg/injection, schedule: Q01DX015 (ip), vehicle: other
  T/C: 158 % of control and 438 % of control
dose: 16.2 mg/kg/injection, schedule: Q01DX001 (ip), vehicle: other
  T/C: 314 % of control
dose: 18.0 mg/kg/injection, schedule: Q## X004 (ip), vehicle: other
  T/C: 601 % of control and 682 % of control
dose: 20.0 mg/kg/injection, schedule: Q01DX001 (ip), vehicle: carboxymethylcellulose (CMC)
  T/C: 250 % of control
dose: 20.0 mg/kg/injection, schedule: Q02DX008 (ip), vehicle: other
  T/C: 380 % of control and 649 % of control
dose: 22.0 mg/kg/injection, schedule: Q## X032 (ip), vehicle: other
  T/C: 240 % of control
dose: 23.0 mg/kg/injection, schedule: Q01DX001 (ip), vehicle: other
  T/C: 238 % of control
dose: 25.0 mg/kg/injection, schedule: Q01DX001 (ip), vehicle: carboxymethylcellulose (CMC)
  T/C: 192 % of control
dose: 25.0 mg/kg/injection, schedule: Q01DX001 (oral), vehicle: carboxymethylcellulose (CMC)
  T/C: 616 % of control and 733 % of control
dose: 25.0 mg/kg/injection, schedule: Q01DX001 (sc), vehicle: carboxymethylcellulose (CMC)
  T/C: 216 % of control
dose: 25.0 mg/kg/injection, schedule: Q01DX001 (sc), vehicle: other
  T/C: 317 % of control
dose: 25.0 mg/kg/injection, schedule: Q01DX005 (oral), vehicle: carboxymethylcellulose (CMC)
  T/C: 344 % of control
dose: 25.0 mg/kg/injection, schedule: Q## X006 (ip), vehicle: carboxymethylcellulose (CMC)
  T/C: 733 % of control
dose: 25.0 mg/kg/injection, schedule: Q## X006 (oral), vehicle: carboxymethylcellulose (CMC)
  T/C: 355 % of control
dose: 27.0 mg/kg/injection, schedule: Q01DX001 (ip), vehicle: other
  T/C: 241 % of control and 302 % of control
dose: 27.0 mg/kg/injection, schedule: Q01DX001 (oral), vehicle: other
  T/C: 264 % of control and 289 % of control
dose: 27.0 mg/kg/injection, schedule: Q## X001 (ip), vehicle: other
  T/C: 447 % of control
dose: 27.0 mg/kg/injection, schedule: Q## X001 (oral), vehicle: other
  T/C: 280 % of control and 426 % of control
dose: 27.0 mg/kg/injection, schedule: Q## X004 (ip), vehicle: other
  T/C: 412 % of control and 594 % of control
dose: 30.0 mg/kg/injection, schedule: Q01DX001 (ip), vehicle: carboxymethylcellulose (CMC)
  T/C: 322 % of control
dose: 30.0 mg/kg/injection, schedule: Q02DX008 (ip), vehicle: other
  T/C: 153 % of control and 256 % of control
dose: 32.0 mg/kg/injection, schedule: Q## X032 (ip), vehicle: other
  T/C: 105 % of control
dose: 36.0 mg/kg/injection, schedule: Q01DX001 (ip), vehicle: other
  T/C: 529 % of control
dose: 40.0 mg/kg/injection, schedule: Q## X004 (ip), vehicle: other
  T/C: 209 % of control and 600 % of control
dose: 41.0 mg/kg/injection, schedule: Q## X001 (oral), vehicle: other
  T/C: 383 % of control
dose: 45.0 mg/kg/injection, schedule: Q01DX001 (ip), vehicle: carboxymethylcellulose (CMC)
  T/C: 344 % of control
dose: 48.0 mg/kg/injection, schedule: Q## X032 (ip), vehicle: other
  T/C: 114 % of control and 120 % of control
dose: 50.0 mg/kg/injection, schedule: Q01DX001 (oral), vehicle: carboxymethylcellulose (CMC)
  T/C: 716 % of control
dose: 50.0 mg/kg/injection, schedule: Q01DX001 (sc), vehicle: carboxymethylcellulose (CMC)
  T/C: 733 % of control
dose: 50.0 mg/kg/injection, schedule: Q01DX005 (oral), vehicle: carboxymethylcellulose (CMC)
  T/C: 200 % of control
dose: 50.0 mg/kg/injection, schedule: Q04DX004 (ip), vehicle: carboxymethylcellulose (CMC)
  T/C: 183 % of control
dose: 50.0 mg/kg/injection, schedule: Q04DX004 (oral), vehicle: carboxymethylcellulose (CMC)
  T/C: 205 % of control
dose: 50.0 mg/kg/injection, schedule: Q## X006 (ip), vehicle: carboxymethylcellulose (CMC)
  T/C: 733 % of control
dose: 50.0 mg/kg/injection, schedule: Q## X006 (oral), vehicle: carboxymethylcellulose (CMC)
  T/C: 116 % of control
dose: 54.0 mg/kg/injection, schedule: Q01DX001 (ip), vehicle: carboxymethylcellulose (CMC)
  T/C: 282 % of control
dose: 54.0 mg/kg/injection, schedule: Q01DX001 (oral), vehicle: other
  T/C: 352 % of control
dose: 54.0 mg/kg/injection, schedule: Q## X001 (ip), vehicle: other
  T/C: 421 % of control
dose: 54.0 mg/kg/injection, schedule: Q## X001 (oral), vehicle: other
  T/C: 226 % of control
dose: 60.0 mg/kg/injection, schedule: Q## X004 (ip), vehicle: other
  T/C: 200 % of control
dose: 67.0 mg/kg/injection, schedule: Q01DX001 (ip), vehicle: carboxymethylcellulose (CMC)
  T/C: 289 % of control
dose: 100.0 mg/kg/injection, schedule: Q01DX001 (oral), vehicle: carboxymethylcellulose (CMC)
  T/C: 166 % of control and 244 % of control
dose: 100.0 mg/kg/injection, schedule: Q04DX004 (oral), vehicle: carboxymethylcellulose (CMC)
  T/C: 122 % of control
dose: 200.0 mg/kg/injection, schedule: Q01DX001 (oral), vehicle: carboxymethylcellulose (CMC)
  T/C: 155 % of control
